How the values were obtained:
Assay in all cases: relative viability (nuclei count vs DMSO), 5 days (fraction); higher = more cells survive
Selisistat + AZD7762 = compound: C1CC(C2=C(C1)C3=C(N2)C=CC(=C3)Cl)C(=O)N [Selisistat] + NC(=O)Nc1cc(-c2cccc(F)c2)sc1C(=O)N[C@H]1CCCNC1 [AZD7762] (partner 0.2 µM)
Method in brief: (§1)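 Relative viability is defined as nuclei in treated wells over nuclei in vehicle wells. Duplicate plates were run and medians reported. Lung cancer cell lines in 1536-well plates were dosed by pin tool one day after seeding, with one drug or with a fixed anchor-drug dose plus five library-drug doses (not always all listed) in √10 steps, and nuclei were counted after 5 days.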

Serdemetan + Phenformin = compound: c1ccc2c(CCNc3ccc(Nc4ccncc4)cc3)c[nH]c2c1 [Serdemetan] + N=C(N)NC(=N)NCCc1ccccc1 [Phenformin] (partner 250 µM)
Method in brief: as §1

Selisistat + Pictilisib = compound: C1CC(C2=C(C1)C3=C(N2)C=CC(=C3)Cl)C(=O)N [Selisistat] + CS(=O)(=O)N1CCN(Cc2cc3nc(-c4cccc5[nH]ncc45)nc(N4CCOCC4)c3s2)CC1 [Pictilisib] (partner 1 µM)
Method in brief: as §1

Selisistat + Trametinib = compound: C1CC(C2=C(C1)C3=C(N2)C=CC(=C3)Cl)C(=O)N [Selisistat] + CC(=O)Nc1cccc(-n2c(=O)n(C3CC3)c(=O)c3c(Nc4ccc(I)cc4F)n(C)c(=O)c(C)c32)c1 [Trametinib] (partner 0.02 µM)
Method in brief: as §1

Cell Line	relative viability (Selisistat + AZD7762; first compound 0.4 µM)	relative viability (Selisistat + AZD7762; first compound 1.265 µM)	relative viability (Selisistat + AZD7762; first compound 4 µM)	relative viability (Selisistat + AZD7762; first compound 12.65 µM)	relative viability (Selisistat + AZD7762; first compound 40 µM)	relative viability (Serdemetan + Phenformin; first compound 0.04 µM)	relative viability (Serdemetan + Phenformin; first compound 0.1265 µM)	relative viability (Serdemetan + Phenformin; first compound 0.4 µM)	relative viability (Serdemetan + Phenformin; first compound 1.265 µM)	relative viability (Serdemetan + Phenformin; first compound 4 µM)	relative viability (Selisistat + Pictilisib; first compound 0.4 µM)	relative viability (Selisistat + Pictilisib; first compound 1.265 µM)	relative viability (Selisistat + Pictilisib; first compound 4 µM)	relative viability (Selisistat + Pictilisib; first compound 12.65 µM)	relative viability (Selisistat + Pictilisib; first compound 40 µM)	relative viability (Selisistat + Trametinib; first compound 0.4 µM)	relative viability (Selisistat + Trametinib; first compound 1.265 µM)	relative viability (Selisistat + Trametinib; first compound 4 µM)	relative viability (Selisistat + Trametinib; first compound 12.65 µM)	relative viability (Selisistat + Trametinib; first compound 40 µM)
NCI-H1755	0.427	0.391	0.407	0.407	0.43	0.625	0.623	0.564	0.469	0.52	0.439	0.414	0.363	0.451	0.443	0.83	0.883	0.783	0.764	0.841
HCC-78	0.626	0.669	0.431	0.683	0.502	0.612	0.581	0.595	0.581	0.516	0.253	0.229	0.172	0.196	0.181	0.783	0.779	0.696	0.744	0.732
IA-LM	–	–	–	–	–	–	–	–	–	–	0.277	0.368	0.353	0.502	0.375	–	–	–	–	–
NCI-H322M	0.579	0.657	–	0.572	0.675	0.667	0.788	0.774	0.718	0.706	0.562	0.525	–	0.549	0.604	0.483	0.575	–	0.567	0.545
NCI-H3122	1.03	0.95	–	1.04	1	0.302	0.363	0.352	0.236	0.311	0.558	0.606	0.262	0.608	0.704	0.199	0.258	–	0.3	0.213
COR-L23	–	–	–	–	–	0.448	0.468	0.427	0.414	0.42	0.821	0.78	0.899	0.701	0.689	0.66	0.597	0.656	0.614	0.645
NCI-H2087	1.31	1.14	–	1.19	1.25	0.446	0.47	0.455	0.267	0.253	0.977	0.911	0.321	0.873	0.841	0.194	0.164	–	0.22	0.202
NCI-H2023	–	–	–	–	–	0.395	0.413	0.351	0.254	0.205	0.25	0.265	0.201	0.255	0.222	0.608	0.473	0.607	0.47	0.573
COR-L 105	–	–	–	–	–	0.507	0.418	0.443	0.492	0.431	0.432	0.412	0.322	0.405	0.418	0.45	0.421	0.421	0.442	0.512
NCI-H520	–	–	–	–	–	0.513	0.657	0.596	–	0.38	0.262	0.304	0.15	0.294	0.354	0.545	0.599	0.651	0.681	0.637
SK-LU-1	–	–	–	–	–	0.484	0.573	0.538	–	0.343	0.65	0.637	0.429	0.695	0.635	0.598	0.503	0.546	0.51	0.444
NCI-H522	0.63	0.672	0.622	0.9	1.01	0.669	0.669	0.67	–	0.679	–	–	–	–	–	0.651	0.653	0.745	0.751	0.589
NCI-H1299	–	–	–	–	–	–	–	–	–	–	0.778	0.744	1.02	0.849	0.692	–	–	–	–	–
NCI-H1650	–	–	–	–	–	0.424	0.462	0.268	0.391	0.285	0.692	0.59	0.516	0.589	0.548	0.564	0.572	0.531	0.577	0.465
NCI-H2009	–	–	–	–	–	0.451	0.472	0.431	0.307	0.366	0.928	0.827	0.323	0.609	0.795	0.285	0.278	0.287	0.259	0.282
NCI-H1648	0.736	0.64	–	0.731	0.768	–	–	–	–	–	–	–	–	–	–	0.448	0.399	–	0.453	0.431
SK-MES-1	–	–	–	–	–	0.634	0.646	0.605	0.576	0.456	0.37	0.309	0.315	0.329	0.366	0.589	0.539	0.55	0.492	0.459
NCI-H2342	0.494	0.483	0.41	0.611	0.505	0.597	0.538	0.628	0.537	0.393	–	–	–	–	–	0.931	0.826	0.801	0.736	0.988
SW 900	0.533	0.529	0.681	0.601	0.584	0.551	0.487	0.674	0.295	0.365	–	–	–	–	–	1.03	0.87	0.78	0.995	0.78
A549	–	–	–	–	–	0.0903	0.163	0.209	0.0895	0.0987	0.605	0.478	0.525	0.55	0.449	–	–	–	–	–
NCI-H661	–	–	–	–	–	0.283	0.303	0.254	0.246	0.281	0.476	0.478	0.343	0.348	0.38	0.522	0.541	0.442	0.502	0.45
NCI-H1563	–	–	–	–	–	0.689	0.591	0.567	0.586	0.589	0.559	0.639	0.649	0.605	0.623	–	–	–	–	–
ABC-1	0.791	0.778	–	0.829	1.08	0.229	0.235	0.197	0.204	0.224	0.782	0.895	0.728	0.758	0.773	–	–	–	–	–
